{"source": "patent US5670506A", "about": "“Halogen, isothiocyanate or azide substituted xanthines” (Cell Therapeutics, Inc., priority 1993, dated 1997)", "format_in_all_cases": "cell-based", "key": {"human stromal cells": {"system": "human stromal cells", "assay": "inhibition of proliferation of human stromal cells stimulated with PDGF", "method": "This assay is a model for restenosis and treatment of atherosclerosis and coronary artery disease. Stromal cells were starved in serum-free media for one day and then stimulated with 50 ng/ml PDGF-BB. The drags were added at the indicated concentrations one hour prior to PDGF stimulation. Tritiated thymidine was added for one day at the time of PDGF stimulation and the cells were harvested and counted by liquid scintillation counting 24 hrs later. Background counts (i.e., starved cells) were approximately 1% of control levels.\nAnother assay for measuring activity of the inventive compounds involves determining PDGF (platelet derived growth factor) proliferative response using human-derived stromal cells. Human stromal cells are plated (e.g., about 2000 cells per well) in defined media (e.g., 69% McCoy's, 12.5% fetal calf serum, 12.5% horse serum, 1% antibiotics, 1% glutamine, 1% vitamin supplement, 0.8% essential amino acids, 1% sodium pyruvate, 1% sodium bicarbonate, 0.4% non-essential amino acids and 0.36% hydrocortisone). Two to three days later, the stromal cells are starved in serum-free media. Twenty four hours later, the cells are treated with a stimulating agent, such as PDGF-AA, PDGF-BB or basic FGF (fibroblast growth factor) with or without IL-1α or TNF, and tritiated thymidine. Cell proliferation is determined by liquid scintillation counting.\nThis assay is a model for restenosis and treatment of atherosclerosis and coronary artery disease. Stromal cells were starved in serum-free media for one day and then stimulated with 50 ng/ml PDGF-BB. The drugs were added at the indicated concentrations one hour prior to PDGF stimulation. Tritiated thymidine was added for one day at the time of PDGF stimulation and the cells were harvested and counted by liquid scintillation counting 24 hrs later. Background counts (i.e., starved cells) were approximately 1% of control levels."}, "[1]": {"system": "transformed cells (Ras 3T3) and normal 3T3 cells", "assay": "cytotoxicity in transformed and normal 3T3 cells", "method": "A similar experiment is shown in FIG. 9 for five inventive compounds (see Table 1 […] for chemical names) showing differential cytotoxicity for the same normal and transformed cells.\nEach inventive compound is investigated for cytotoxicity to determine appropriate doses for biological activity assays and to prevent cytotoxic reactions in in vitro assays when characterizing activity. Cells (e.g., NIH-3T3, Ras transformed 3T3 cells, malignant melanoma LD2 cells, etc.) are added to microtiter plates and drug is added about two days after plating. Cell viability is determined using a fluorescent viability stain (e.g., 2',7'-bis-(2-carboroxyethyl)-5-(and -6)-carboxyfluorescein acetoxymethyl ester, BCECF excitation 488 nm and emission 525 nm) 24, 48 or 72 hours after addition of the drug.\nThis example illustrates a comparison of cytotoxicity determinations for CT1595 in transformed cells (Ras 3T3) and in normal 3T3 cells at drug doses of 1, 10 and 100 μM in in vitro cell culture conditions (FIG. 8). […] A similar experiment is shown in FIG. 9 for five inventive compounds (see Table 1 above for chemical names) showing differential cytotoxicity for the same normal and transformed cells."}, "human lymphocytes": {"system": "human lymphocytes", "assay": "inhibition of blast formation from human lymphocytes stimulated by IL-2", "conditions": "Lymphocyte, FIG. 10, read-out: IC50, blastogenesis stimulated by IL-2", "method": "This is a human in vitro assay for immunosuppressive activity of the inventive compounds.\nA third assay measures an ability of an inventive compound to inhibit IL-2-induced proliferation of murine thymocytes. Thymus glands are obtained from 4-6 week old mice and plated as a single cell suspension into flat bottomed wells in RPMI 1640 medium supplemented with 10% fetal calf serum. The inventive compounds are added to appropriate wells and the cells are incubated for 1-2 hrs. Concanavilin A (ConA, 0.25 μg/ml) and IL-1 (20 ng/ml) are added and the plates are incubated for 4 days. Cell proliferation is determined as above. There are also variations for this assay that follow the same basic stimulation and measure inhibition of proliferation format. For example, splenocytes can be used instead of thymocytes to measure more of a B cell response than a T cell response (e.g., thymocytes) and stimulated by an anti-mu antibody (40 μg/ml), IL-4 or PMA (2.5 nM). Similarly, human lymphocytes can be used from normal human volunteers and stimulated with human IL-2 (100 U/ml, Genzyme) and/or anti-CD3 antibody (2.5 μg/ml, Boehinger Mannheim).\nThis example illustrates an experiment showing the effects of CT1525, CT1529 and CT1595 (see Table 1 above for chemical names) on inhibition of blast formation from human lymphocytes stimulated by IL-2 or an anti-CD3 antibody (FIG. 10). […]"}, "[2]": {"system": "TNF release from monocytes in whole blood", "assay": "ex vivo human TNF model, LPS-mediated TNF release in whole blood", "conditions": "FIG. 14", "method": "This model adds LPS to whole blood (normal human volunteers) to trigger a dose-dependent synthesis and extracellular release of TNF according to Desch et al. (Lymphokine Res. 8:141, 1989). The ex vivo model examines whether LPS-mediated release of TNF from monocytes in whole blood can be block by an inventive compound.\nAn ex vivo human sepsis model is described in Desch et al., Lymphokine Res. 8:141, 1989 and in Ooi et al., J. Exp. Med. 174:649, 1991. Briefly, whole blood from humans is incubated with LPS (endotoxin). TNF released from cells (mostly from monocytes) is measured. The inventive compounds lower TNF levels as compared with untreated controls in this model.\nThis example illustrates a comparative experiment comparing CT1595, CT1529 and CT2519 in an ex vivo human TNF model described herein. This assay is a predictive model for treatment and prevention of septic shock and sepsis syndrome. This model adds LPS to whole blood (normal human volunteers) to trigger a dose-dependent synthesis and extracellular release of TNF according to Desch et al. (Lymphokine Res. 8:141, 1989). The ex vivo model examines whether LPS-mediated release of TNF from monocytes in whole blood can be block by an inventive compound."}, "[3]": {"system": "CMV promoter activity in transformed (adenovirus) cells", "assay": "CMV promoter assay (gene transcription and translation, cytotoxic activity)", "conditions": "read-out: IC50 (μM), CMV promoter assay", "description": "This example illustrates data regarding proliferative activity of various inventive compounds for inducting CMV promoter activity. The CMV promoter assay measures gene transcription and translation activity wherein any active compounds will nave cytotoxic activity to inhibit cellular protein synthesis machinery in transformed (adenovirus) cells."}}}
{"smiles": "Cn1cnc2c1c(=O)n(CCCCC(=O)CCl)c(=O)n2C", "note": "[CT1595, 1-(6-chloro-5-oxohexyl)-3,7-dimethylxanthine]", "values": [{"measurement": "inhibition of human stromal cell proliferation", "setting": "human stromal cells; FIG. 7, 50 ng/ml PDGF-BB, in words", "result": "strongly inhibit proliferation"}, {"measurement": "IC50", "setting": "human stromal cells; Homo sapiens, read-out: IC50, inhibition of human stromal cell proliferation", "result": "< 10", "unit": "µM"}, {"measurement": "differential cytotoxicity, transformed vs normal 3T3 cells", "setting": "[1]; FIG. 8, 1, 10 and 100 μM", "result": "more cytotoxic for the cancer cell than the normal cell"}, {"measurement": "cytotoxic activity, normal and transformed 3T3 cells", "setting": "[1]; FIG. 9, five compounds", "result": "significant cytotoxic activity"}, {"measurement": "IC50", "setting": "human lymphocytes", "result": "< 5", "unit": "µM"}, {"measurement": "block of LPS-mediated TNF release", "setting": "[2]", "result": "could block TNF release in a dose-dependent fashion"}, {"measurement": "IC50", "setting": "[3]", "result": 20, "unit": "µM"}]}
